Assay results: US20260123630A1, “COMPOSITIONS INCLUDING ENCAPSULATED BIXLOZONE AND NON ENCAPSULATED BIXLOZONE” (FMC CORPORATION, priority 2022, published 2026)

System: corn
Assay: Crop injury studies in corn
Type: in vivo
Description: The maximum crop injury from encapsulated and non-encapsulated bixlozone compositions were assessed for corn. The compositions were applied at post-seeding pre-emergence and post-emergence.
The numbers in parentheses indicate the application rate of the applied compositions in g ai/ha.

## CCCCCC(C)OC(=O)COc1ccc(Cl)c2cccnc12 (centres unmarked) [cloquintocet-mexyl]
post-emergence BBCH 11-12, FIG. 5
  Effect of mixture partner on crop injury (in words): no observed effect
post-emergence BBCH 13-15, FIG. 6
  Effect of mixture partner on crop injury (in words): no observed effect
